Reference: patent US20100249132A1, “IMIDAZOLE DERIVATIVES” (MERCK PATENT GESELLSCHAFT MIT BESCHRANKTER HAFTUNG, priority 2007, published 2010)

Molecular target: T1, recombinant autotaxin (Homo sapiens, UniProt Q13822)
T1 construct: made in house; host or cells: Hi5 insect cells (baculovirus)
Assay: Autotaxin test (enzyme test), Amplex Red fluorescence
Type: biochemical
Settings: substrate LPC 75 μM, Amplex Red detection, read-out: IC50 (autotaxin inhibition, enzyme test)
Protocol: Autotaxin Inhibition (Enzyme Test)
Autotaxin Test (Enzyme Test)
The autotaxin activity is measured indirectly using Amplex Red reagent. Amplex Red is measured here as fluorogenic indicator for the H2O2 formed. In detail, autotaxin converts the substrate lysophosphatidylcholine (LPC) into phosphocholine and lysophosphatidylic acid (LPA). After this reaction, the phosphocholine is reacted with alkaline phosphatase to give inorganic phosphate and choline. In the next step, choline is oxidised by choline oxidase to give betaine, with formation of H2O2. H2O2 reacts with Amplex Red reagent in the presence of peroxidase (horseradish peroxidase) in a 1:1 stoichiometry and forms the highly fluorescent resorufin. The fluorescence is measured in a reaction-dependent kinetic mode in order that fluorescent signals from possible other fluorescent substances which are not involved in the reaction can be corrected out.
1.5 μl of a standard solution or of the test substances (substances with the name A(n)) in individual concentrations dissolved in 20 mM Hepes pH 7.2 with a maximum of 7.7% of DMSO are pre-incubated together with 10 μl (16 ng) of highly purified recombinant autotaxin in a black microtitre plate provided with 384 wells at 22° C. for 30 min. The reaction is then initiated by addition of 5 μl of L-α-lysophosphatidylcholine (LPC), where the final concentration of LPC is 75 μM. The mixture is incubated at 37° C. for 90 min. After the incubation, Amplex Red reagent, peroxidase (horseradish peroxidase) and choline oxidase is added, and the fluorescence is immediately measured at 612 nm with excitation of 485 nm in a “Tecan Ultra multimode” reader. The activity of autotaxin is calculated indirectly via detection of the H2O2 formed. • Material: • Microtitre plate: PS microplate, 384 wells, small volume, black Corning, Cat #3677 • Protein: recombinant autotaxin (Baculovirale Hi5 Expression) • Substrate: L-α-lysophosphatidylcholine (chicken egg)); Avanti Polar Lipids #830071 P • Standard: C14 LPA, Avanti Polar Lipids, Cat #857120P • Detection reagent: Amplex Red reagent; Invitrogen #A12222; dissolved in 1.923 ml of DMSO peroxidase type VI-A (horseradish) from Sigma #P6782; dissolved in 7.45 ml of test buffer, choline oxidase; Sigma #C5896; dissolved in 2.47 ml of test buffer • Detection reagent mix: 1:100 dilution of Amplex Red reagent in test buffer • Test buffer: 200 mM Tris HCl, Merck, Cat #1.08219, pH 7.9, 0.1% of BSA, lipid-free, Roche Cat #775835

SMILES	IC50
CCc1cccc(CC)c1NC(=O)Nc1[nH]c(Cc2ccc(C(=O)O)o2)nc1C(N)=O [Compound A28, 5-{4-Carbamoyl-5-[3-(2,6-diethylphenyl)ureido]-1H-imidazol-2-ylmethyl}furan-2-carboxylic acid]	> 10 µM
NC(=O)c1nc(Cc2ccc(C(=O)O)o2)[nH]c1NC(=O)Nc1ccc(Cl)c(C(F)(F)F)c1 [Compound A29, 5-{4-Carbamoyl-5-[3-(4-chloro-3-trifluoromethyl-phenyl)ureido]-1H-imidazol-2-ylmethyl}furan-2-carboxylic acid]	> 10 µM
NC(=O)c1nc(Cc2ccc(C(=O)O)o2)[nH]c1NC(=O)Nc1ccc(Cl)cc1 [Compound A30, 5-{4-Carbamoyl-5-[3-(4-chlorophenyl)ureido]-1H-imidazol-2-ylmethyl}furan-2-carboxylic acid]	1 to 10 µM
Cc1cc(C)c(NC(=O)Nc2[nH]c(Cc3ccc(C(=O)O)o3)nc2C(N)=O)c(C)c1 [Compound A31, 5-{4-Carbamoyl-5-[3-(2,4,6-trimethylphenyl)-ureido]-1H-imidazol-2-ylmethyl}furan-2-carboxylic acid]	1 to 10 µM
CCc1cccc(C)c1NC(=O)Nc1[nH]c(Cc2ccc(C(=O)O)o2)nc1C(N)=O [Compound A32, 5-{4-Carbamoyl-5-[3-(2-ethyl-6-methylphenyl)-ureido]-1H-imidazol-2-ylmethyl}furan-2-carboxylic acid]	> 10 µM
NC(=O)c1nc(Cc2ccc(C(=O)O)o2)[nH]c1NC(=O)Nc1ccc2ccccc2c1 [Compound A33, 5-[4-Carbamoyl-5-(3-naphthalen-2-ylureido)-1H-imidazol-2-ylmethyl]furan-2-carboxylic acid]	> 10 µM
NC(=O)c1nc(Cc2ccc(OCC(=O)O)cc2)[nH]c1NC(=O)Nc1ccc(F)cc1 [Compound A36, (4-{4-Carbamoyl-5-[3-(4-fluorophenyl)ureido]-1H-imidazol-2-ylmethyl}phenoxy)acetic acid]	> 10 µM
NC(=O)c1nc(Cc2ccc(OCC(=O)O)cc2)[nH]c1NC(=O)Nc1cccc(C(F)(F)F)c1 [Compound A37, (4-{4-Carbamoyl-5-[3-(3-trifluoromethylphenyl)-ureido]-1H-imidazol-2-ylmethyl}phenoxy)acetic acid]	> 10 µM
NC(=O)c1nc(Cc2ccc(OCC(=O)O)cc2)[nH]c1NC(=O)Nc1ccc(C(F)(F)F)cc1 [Compound A38, (4-{4-Carbamoyl-5-[3-(4-trifluoromethylphenyl)-ureido]-1H-imidazol-2-ylmethyl}phenoxy)acetic acid]	1 to 10 µM
CCCCc1ccc(NC(=O)Nc2[nH]c(Cc3ccc(OCC(=O)O)cc3)nc2C(N)=O)cc1 [Compound A39, (4-{5-[3-(4-Butylphenyl)ureido]-4-carbamoyl-1H-imidazol-2-ylmethyl}phenoxy)acetic acid]	1 to 10 µM
Cc1ccc(NC(=O)Nc2[nH]c(Cc3ccc(OCC(=O)O)cc3)nc2C(N)=O)cc1 [Compound A40, {4-[4-Carbamoyl-5-(3-p-tolylureido)-1H-imidazol 2-ylmethyl]phenoxy}acetic acid]	1 to 10 µM
NC(=O)c1nc(Cc2ccc(OCC(=O)O)cc2)[nH]c1NC(=O)Nc1ccc(Cl)cc1 [Compound A41, (4-{4-Carbamoyl-5-[3-(4-chlorophenyl)ureido]-1H-imidazol-2-ylmethyl}phenoxy)acetic acid]	1 to 10 µM
CCc1ccc(NC(=O)Nc2[nH]c(Cc3ccc(OCC(=O)O)cc3)nc2C(N)=O)cc1 [Compound A42, (4-{4-Carbamoyl-5-[3-(4-ethylphenyl)ureido]-1H imidazol-2-ylmethyl}phenoxy)acetic acid]	1 to 10 µM
CCCCCc1ccc(NC(=O)Nc2[nH]c(Cc3ccc(OCC(=O)O)cc3)nc2C(N)=O)cc1 [Compound A43, (4-{4-Carbamoyl-5-[3-(4-pentylphenyl)ureido]-1 H-imidazol-2-ylmethyl}phenoxy)acetic acid]	1 to 10 µM
NC(=O)c1nc(Cc2ccc(OCC(=O)O)cc2)[nH]c1NC(=O)Nc1cc(C(F)(F)F)ccc1F [Compound A44, (4-{4-Carbamoyl-5-[3-(2-fluoro-5-trifluoromethyl-phenyl)ureido]-1H-imidazol-2-ylmethyl}phenoxy)-acetic acid]	> 10 µM
NC(=O)c1nc(Cc2ccc(OCC(=O)O)cc2)[nH]c1NC(=O)Nc1ccc(Oc2ccccc2)cc1 [Compound A45, (4-{4-Carbamoyl-5-[3-(4-phenoxyphenyl)ureido]-1H-imidazol-2-ylmethyl}phenoxy)acetic acid]	> 10 µM

SMILES	IC50
NC(=O)c1nc(-c2ccc(OCC(=O)O)cc2)[nH]c1NC(=O)Nc1ccc(F)cc1 [Compound A46, (4-{4-Carbamoyl-5-[3-(4-fluorophenyl)ureido]-1H-imidazol-2-yl}phenoxy)acetic acid]	> 10 µM
NC(=O)c1nc(-c2ccc(OCC(=O)O)cc2)[nH]c1NC(=O)Nc1ccccc1Cl [Compound A47, (4-{4-Carbamoyl-5-[3-(2-chlorophenyl)ureido]-1H-imidazol-2-yl}phenoxy)acetic acid]	> 10 µM
Cc1cccc(C)c1NC(=O)Nc1[nH]c(-c2ccc(OCC(=O)O)cc2)nc1C(N)=O [Compound A48, (4-{4-Carbamoyl-5-[3-(2,6-dimethylphenyl)-ureido]-1H-imidazol-2-yl}phenoxy)acetic acid]	> 10 µM
NC(=O)c1nc(-c2ccc(OCC(=O)O)cc2)[nH]c1NC(=O)Nc1cccc(C(F)(F)F)c1 [Compound A49, (4-{4-Carbamoyl-5-[3-(3-trifluoromethylphenyl)-ureido]-1H-imidazol-2-yl}phenoxy)acetic acid]	1 to 10 µM
NC(=O)c1nc(-c2ccc(OCC(=O)O)cc2)[nH]c1NC(=O)Nc1ccc(C(F)(F)F)cc1 [Compound A50, (4-{4-Carbamoyl-5-[3-(4-trifluoromethylphenyl)-ureido]-1H-imidazol-2-yl}phenoxy)acetic acid]	1 to 10 µM
CC(C)c1ccc(NC(=O)Nc2[nH]c(-c3ccc(OCC(=O)O)cc3)nc2C(N)=O)cc1 [Compound A51, (4-{4-Carbamoyl-5-[3-(4-isopropylphenyl)ureido]-1H-imidazol-2-yl}phenoxy)acetic acid]	1 to 10 µM
CCCCc1ccc(NC(=O)Nc2[nH]c(-c3ccc(OCC(=O)O)cc3)nc2C(N)=O)cc1 [Compound A52, (4-{5-[3-(4-Butylphenyl)ureido]-4-carbamoyl-1H-imidazol-2-yl}phenoxy)acetic acid]	> 10 µM
Cc1ccc(NC(=O)Nc2[nH]c(-c3ccc(OCC(=O)O)cc3)nc2C(N)=O)cc1 [Compound A53, {4-[4-Carbamoyl-5-(3-p-tolylureido)-1H-imidazol 2-yl]phenoxy}acetic acid]	> 10 µM
CCc1ccc(NC(=O)Nc2[nH]c(-c3ccc(OCC(=O)O)cc3)nc2C(N)=O)cc1 [Compound A54, (4-{4-Carbamoyl-5-[3-(4-ethylphenyl)ureido]-1H-imidazol-2-yl}phenoxy)acetic acid]	1 to 10 µM
NC(=O)c1nc(-c2ccc(OCC(=O)O)cc2)[nH]c1NC(=O)Nc1cc(C(F)(F)F)ccc1F [Compound A55, (4-{4-Carbamoyl-5-[3-(2-fluoro-5-trifluoromethyl-phenyl)ureido]-1H-imidazol-2-yl}phenoxy)acetic acid]	1 to 10 µM
NC(=O)c1nc(COc2ccc(CC(=O)O)cc2)[nH]c1NC(=O)Nc1ccc(C(F)(F)F)cc1 [Compound A56, (4-{4-Carbamoyl-5-[3-(4-trifluoromethylphenyl)-ureido]-1H-imidazol-2-ylmethoxy}phenyl)acetic acid]	1 to 10 µM
CC(C)c1ccc(NC(=O)Nc2[nH]c(COc3ccc(CC(=O)O)cc3)nc2C(N)=O)cc1 [Compound A57, (4-{4-Carbamoyl-5-[3-(4-isopropylphenyl)ureido]-1H-imidazol-2-ylmethoxy}phenyl)acetic acid]	1 to 10 µM
Cc1ccc(NC(=O)Nc2[nH]c(COc3ccc(CC(=O)O)cc3)nc2C(N)=O)cc1 [Compound A58, {4-[4-Carbamoyl-5-(3-p-tolylureido)-1H-imidazol 2-ylmethoxy]phenyl}acetic acid]	> 10 µM
NC(=O)c1nc(COc2ccc(CC(=O)O)cc2)[nH]c1NC(=O)Nc1ccc(Cl)cc1 [Compound A59, (4-{4-Carbamoyl-5-[3-(4-chlorophenyl)ureido]-1H-imidazol-2-ylmethoxy}phenyl)acetic acid]	> 10 µM
Cc1ccc(NC(=O)Nc2[nH]c(COc3ccc(CC(=O)O)cc3)nc2C(N)=O)c(C)c1 [Compound A60, (4-{4-Carbamoyl-5-[3-(2,4-dimethylphenyl)-ureido]-1H-imidazol-2-ylmethoxy}phenyl)acetic acid]	1 to 10 µM
